Data from patent publication US20120129811A1, “TRICYCLIC INHIBITORS OF PRO-MATRIX METALLOPROTEINASE ACTIVATION” (priority 2010, published 2012).
Counter-ions that a name gives are not always drawn.

Key:
[1] = target: T1, proMMP13(1-268) (SEQ ID NO:7) (Homo sapiens, UniProt P45452); assay: ThermoFluor binding assay with proMMP13(1-268)
T1 construct: 6xHis (C); made in house; host or cells: HEK293 (transient, secreted)
Procedure: The ThermoFluor® (TF) assay is a 384-well plate-based binding assay that measures thermal stability of proteins (Biomol Screen 2001, 6, 429-40; Biochemistry 2005, 44, 5258-66). The experiments were carried out using instruments available from Johnson & Johnson Pharmaceutical Research & Development, LLC. TF dye used in all experiments was […] (1,8-ANS) (Invitrogen: A-47).
Compounds were arranged in a pre-dispensed plate (Greiner Bio-one: 781280), wherein compounds were serially diluted in 100% DMSO across 11 columns within a series. Columns 12 and 24 were used as DMSO reference and contained no compound. For multiple compound concentration-response experiments, the compound aliquots (50 nL) were robotically predispensed directly into black 384-well polypropylene PCR microplates (Abgene: TF-0384/k) using a Cartesian Hummingbird liquid handler (DigiLab, Holliston, Mass.). Following compound dispense, protein and dye solutions were added to achieve the final assay volume of 3 μL. The assay solutions were overlayed with 1 μL of silicone oil (Fluka, type DC 200: 85411) to prevent evaporation.
Assay plates were robotically loaded onto a thermostatically controlled PCR-type thermal block and then heated from 40 to 90° C. at a ramp-rate of 1° C./min for all experiments. Fluorescence was measured by continuous illumination with UV light (Hamamatsu LC6) supplied via fiber optics and filtered through a band-pass filter (380-400 nm; >60D cutoff). Fluorescence emission of the entire 384-well plate was detected by measuring light intensity using a CCD camera (Sensys, Roper Scientific) filtered to detect 500±25 nm, resulting in simultaneous and independent readings of all 384 wells. A single image with 20-sec exposure time was collected at each temperature, and the sum of the pixel intensity in a given area of the assay plate was recorded vs temperature and fit to standard equations to yield the Tm (J Biomol Screen 2001, 6, 429-40).
Thermodynamic parameters necessary for fitting compound binding for each proMMP were estimated by differential scanning calorimetry (DSC) and from ThermoFluor® data. The heat capacity of unfolding for each protein was estimated from the molecular weight and from ThermoFluor® dosing data.
ThermoFluor® with proMMP13(1-268) (SEQ ID NO: 7)
The proMMP13(1-268) (SEQ ID NO:7) protein sample preparations included a desalting buffer exchange step via a PD-10 gravity column (GE Healthcare). The desalting buffer exchange was performed prior to diluting the protein to the final assay concentration of 3.5 μM. The concentration of proMMP13(1-268) (SEQ ID NO:7) was estimated spectrophotometrically based on a calculated extinction coefficient of ε280=37000 M^−1 cm^−1, a calculated molecular weight of 30.8 kDa, and calculated pI of 5.33. ThermoFluor® reference conditions were defined as follows: 100 μg/mL proMMP13(1-268) (SEQ ID NO:7), 25 μM 1,8-ANS, pH 7.0 Buffer (50 mM HEPES pH 7.0, 100 mM NaCl, 0.001% Tween-20, 2.5 mM MgCl2, 300 μM CaCl2). The thermodynamic parameters for proMMP13(1-268) (SEQ ID NO:7) are as follows: Tm (° C.)=67 (+/−0.1), ΔUH(Tm)) (cal mol^−1)=107000(+/−5000), ΔUSTm (cal mol^−1 K^−1)=318, ΔUCp (cal mol^−1 K^−1)=2600.

[2] = target: T2, proMMP9(20-445;ΔFnII) (SEQ ID NO:6) (Homo sapiens, UniProt P14780, DEL216-390); assay: ThermoFluor binding assay with proMMP9(20-445;ΔFnII)
T2 construct: start methionine (N); made in house; host or cells: E. coli BL21(DE3) RIL
T2 sequence (P14780 with tags, fused parts or gaps DEL216-390): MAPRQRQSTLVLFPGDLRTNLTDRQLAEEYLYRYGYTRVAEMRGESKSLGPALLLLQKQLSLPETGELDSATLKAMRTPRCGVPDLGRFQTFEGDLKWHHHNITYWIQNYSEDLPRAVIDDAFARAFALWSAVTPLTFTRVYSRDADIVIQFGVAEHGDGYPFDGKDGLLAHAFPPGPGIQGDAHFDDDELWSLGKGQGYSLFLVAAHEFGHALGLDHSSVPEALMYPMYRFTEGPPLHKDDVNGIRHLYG
In short: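 Protein thermal stability was measured with 2.8 μM proMMP9(20-445;ΔFnII) and 50 μM 1,8-ANS in 50 mM HEPES pH 7.0, 100 mM NaCl, 0.001% Tween-20, 2.5 mM MgCl2, 300 μM CaCl2, across serial compound dilutions. Samples were heated 40–90° C at 1° C/min with fluorescence read at 500 nm. Tm was fitted, and binding was derived from thermodynamic parameters obtained by DSC and ThermoFluor.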

[3] = target: T3, proMMP9(67-444;ΔFnII) (SEQ ID NO:5) (Homo sapiens, UniProt P14780, DEL216-390); assay: ThermoFluor binding assay with proMMP9(67-444;ΔFnII)
T3 construct: start methionine (N); made in house; host or cells: E. coli BL21(DE3) RIL
T3 sequence (P14780 with tags, fused parts or gaps DEL216-390): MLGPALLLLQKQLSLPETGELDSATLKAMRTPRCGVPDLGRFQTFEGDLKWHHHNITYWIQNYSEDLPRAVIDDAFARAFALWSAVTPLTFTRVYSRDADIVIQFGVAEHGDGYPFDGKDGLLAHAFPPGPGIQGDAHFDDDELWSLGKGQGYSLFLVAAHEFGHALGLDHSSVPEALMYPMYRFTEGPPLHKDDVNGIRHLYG
In short: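 Thermal shift of 3.5 μM proMMP9(67-444;ΔFnII), desalted beforehand, with 50 μM 1,8-ANS in 50 mM HEPES pH 7.0, 100 mM NaCl, 2.5 mM MgCl2, 300 μM CaCl2, 0.001% Tween-20. Heated 40–90 °C at 1 °C/min, fluorescence read at 500 nm; binding fitted from Tm shifts using DSC- and ThermoFluor-derived unfolding parameters.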

[4] = target: T4, full-length proMMP9(1-707) activation by catalytic MMP3 (Homo sapiens, UniProt P14780, R574P); assay: proMMP9/MMP3 P126 Activation Assay; format: biochemical
T4 construct: made in house; host or cells: proMMP9: HEK293 (secreted); MMP3: E. coli
T4 sequence (P14780 20-707 R574P): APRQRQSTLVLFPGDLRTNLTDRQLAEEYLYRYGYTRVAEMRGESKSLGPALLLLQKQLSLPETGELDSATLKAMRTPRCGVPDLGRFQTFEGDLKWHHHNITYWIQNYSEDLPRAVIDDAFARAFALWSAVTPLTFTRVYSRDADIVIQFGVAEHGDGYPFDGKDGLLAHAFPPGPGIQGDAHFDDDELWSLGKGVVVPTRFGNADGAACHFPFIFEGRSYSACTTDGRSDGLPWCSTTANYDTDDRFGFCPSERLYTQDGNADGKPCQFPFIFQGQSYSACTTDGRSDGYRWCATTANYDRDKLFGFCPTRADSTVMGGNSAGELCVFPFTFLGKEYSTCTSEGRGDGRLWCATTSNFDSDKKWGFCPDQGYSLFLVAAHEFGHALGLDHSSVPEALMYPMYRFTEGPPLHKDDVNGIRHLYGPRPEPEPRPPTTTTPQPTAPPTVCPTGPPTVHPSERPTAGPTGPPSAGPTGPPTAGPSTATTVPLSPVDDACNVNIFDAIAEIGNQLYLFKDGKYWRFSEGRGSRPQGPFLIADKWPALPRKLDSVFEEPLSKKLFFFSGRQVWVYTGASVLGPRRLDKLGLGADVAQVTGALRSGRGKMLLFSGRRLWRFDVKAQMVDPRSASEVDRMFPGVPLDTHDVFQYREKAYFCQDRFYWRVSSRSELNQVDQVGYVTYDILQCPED
Procedure: proMMP9/MMP3 P126 Activation Assay
The reaction volume was 50 μL. […] Reactivity of residual MMP3 towards P-126 substrate was minimal under these conditions.

Structure (SMILES)	Kd [1] [nM]	Kd [2] [nM]	Kd [3] [nM]	IC50 [4] [nM]
COc1ccc(C)cc1Nc1nc2c(ccc3c2ncn3C)s1 [Example 41, (2-Methoxy-5-methyl-phenyl)-(6-methyl-6H-imidazo[4′,5′:3,4]benzo[2,1-d]thiazol-2-yl)-amine.HCl]	7700	4200	900	720
Cc1cc2ccc3sc(Nc4cc(C(N)=O)ccc4OC(C)C)nc3c2o1 [Example 38, 4-Isopropoxy-3-(7-methyl-8-oxa-3-thia-1-aza-as-indacen-2-ylamino)-benzamide.HCl]	1400	1000	950	1500
CC(C)Oc1ccc(C(N)=O)cc1Nc1nc2c(s1)CCc1cnccc1-2 [Example 115, 3-(4,5-Dihydro-thiazolo[4,5-f]isoquinolin-2-ylamino)-4-isopropoxy-benzamide.TFA]	14000	3000	25000	1600
CC(C)Oc1ccc(S(N)(=O)=O)cc1Nc1nc2c(ccc3c2ncn3C)s1 [Example 28, 4-Isopropoxy-3-(6-methyl-6H-imidazo[4′,5′:3,4]benzo[2,1-d]thiazol-2-ylamino)-benzenesulfonamide.HCl]	3500	880	2200	180
Cn1cnc2c3nc(Nc4ccccc4OC(F)(F)F)sc3ccc21 [Example 58, (6-Methyl-6H-imidazo[4′,5′:3,4]-benzo[2,1-d]thiazol-2-yl)-(2-trifluoromethoxy-phenyl)-amine.HCl]	21000	2600	930	380
CCc1ccccc1Nc1nc2c(ccc3c2ncn3C)s1 [Example 62, (2-Ethyl-phenyl)-(6-methyl-6H-imidazo[4′,5′:3,4]benzo[2,1-d]thiazol-2-yl)-amine.HCl]	51000	3900	1600	1100
CC(C)Oc1ccc(F)cc1Nc1nc2c(ccc3c2ncn3C)s1 [Example 59, (5-Fluoro-2-isopropoxy-phenyl)-(6-methyl-6H-imidazo[4′,5′:3,4]-benzo[2,1-d]thiazol-2-yl)-amine.HCl]	3200	2000	680	450
Cn1cnc2c3nc(Nc4ccccc4OCC(F)(F)F)sc3ccc21 [Example 43, (6-Methyl-6H-imidazo[4′,5′:3,4]-benzo[2,1-d]thiazol-2-yl)-[2-(2,2,2-trifluoro-ethoxy)-phenyl]-amine.HCl]	> 95000	17000	2800	2500
CC(C)Oc1ccccc1Nc1nc2c(ccc3nc(N)sc32)s1 [Example 9, N^7-(2-Isopropoxy-phenyl)-benzo[1,2-d;3,4-d′]-bisthiazole-2,7-diamine.TFA]	18000	27000	4400	10000
Nc1nc2c(ccc3sc(Nc4cccc(C(=O)O)c4)nc32)[nH]1 [Example 15, 3-(7-Amino-6H-imidazo[4′,5′:3,4]benzo[2,1-d]thiazol-2-ylamino)-benzoic acid.TFA]	33000	> 95000	9900	3500
CC(C)Oc1ccc(C(N)=O)cc1Nc1nc2c(ccc3[nH]c(N4CCN(C)CC4)nc32)s1 [Example 31, 4-Isopropoxy-3-[7-(4-methyl-piperazin-1-yl)-6H-imidazo[4′,5′:3,4]benzo[2,1-d]thiazol-2-ylamino]-benzamide.HCl]	2300	930	820	820
CC(C)Oc1ccc(C(N)=O)cc1Nc1nc2c(ccc3nc(C(=O)N4CCN(C)CC4)[nH]c32)s1 [Example 26, 4-Isopropoxy-3-[7-(4-methyl-piperazine-1-carbonyl)-8H imidazo[4′,5′:3,4]benzo[2,1-d]thiazol-2-ylamino]-benzamide.HCl]	6100	850	700	710
CC(C)Oc1ccc(C(=O)O)cc1Nc1nc2c(ccc3[nH]c(N)nc32)s1 [Example 10, 3-(7-Amino-6H-imidazo[4′,5′:3,4]benzo[2,1-d]thiazol-2-ylamino)-4-isopropoxy-benzoic acid.HCl]	710	940	91	130
CC(C)Oc1ccc(C(N)=O)cc1Nc1nc2c(ccc3[nH]cnc32)s1 [Example 29, 3-(6H-Imidazo[4′,5′:3,4]-benzo[2,1-d]thiazol-2-ylamino)-4-isopropoxy-benzamide.HCl]	1400	800	630	550
CCOc1ccccc1Nc1nc2c(ccc3c2ncn3C)s1 [Example 37, (2-Ethoxy-phenyl)-(6-methyl-6H-imidazo[4′,5′:3,4]benzo[2,1-d]thiazol-2-yl)-amine.HCl]	5900	2300	360	310
CC(C)Oc1ccc(C(N)=O)cc1Nc1nc2c(ccc3nc(N)sc32)s1 [Example 5, 3-(2-Amino-benzo[1,2-d;3,4-d′]bisthiazol-7-ylamino)-4-isopropoxy-benzamide.TFA]	730	320	410	920
COc1ccc(OC)c(Nc2nc3c(ccc4nc(N)sc43)s2)c1 [Example 8, N^7-(2,5-Dimethoxy-phenyl)-benzo[1,2-d;3,4-d′]-bisthiazole-2,7-diamine.TFA]	1800	3100	680	1200
Cc1nc2ccc3sc(Nc4cc(C(N)=O)ccc4OC(C)C)nc3c2s1 [Example 13, 4-Isopropoxy-3-(2-methyl-benzo[1,2-d;3,4-d′]bisthiazol-7-ylamino)-benzamide.TFA]	2200	230	390	420
